Test results from ChEMBL document CHEMBL1141244, “Sulfonamide chalcone as a new class of alpha-glucosidase inhibitors” (Bioorg Med Chem Lett, 2005).
Calls of active or inactive are those of the source. The calls are words filed in the database; no cut-off is given here.

Experiments:
[1] = target: Alpha-amylase (Bacillus licheniformis) (UniProt P06278); test: Inhibitory activity against Bacillus licheniformis alpha amylase at 200 uM
Saccharomyces cerevisiae = test: Inhibitory activity against baker's yeast alpha glucosidase at 200 uM
[2] = target: Beta-amylase (Hordeum vulgare) (UniProt P16098); test: Inhibitory activity against barley beta amylase at 200 uM
[3] = Inhibitory activity against baker's yeast alpha glucosidase; design: species or system Saccharomyces cerevisiae
Beta-amylase = Beta-amylase (Hordeum vulgare, UniProt P16098); test: Inhibitory activity against barley beta amylase
Alpha-amylase = Alpha-amylase (Bacillus licheniformis, UniProt P06278); test: Inhibitory activity against Bacillus licheniformis alpha amylase
Chain of Alpha-amylase (P06278 whole entry): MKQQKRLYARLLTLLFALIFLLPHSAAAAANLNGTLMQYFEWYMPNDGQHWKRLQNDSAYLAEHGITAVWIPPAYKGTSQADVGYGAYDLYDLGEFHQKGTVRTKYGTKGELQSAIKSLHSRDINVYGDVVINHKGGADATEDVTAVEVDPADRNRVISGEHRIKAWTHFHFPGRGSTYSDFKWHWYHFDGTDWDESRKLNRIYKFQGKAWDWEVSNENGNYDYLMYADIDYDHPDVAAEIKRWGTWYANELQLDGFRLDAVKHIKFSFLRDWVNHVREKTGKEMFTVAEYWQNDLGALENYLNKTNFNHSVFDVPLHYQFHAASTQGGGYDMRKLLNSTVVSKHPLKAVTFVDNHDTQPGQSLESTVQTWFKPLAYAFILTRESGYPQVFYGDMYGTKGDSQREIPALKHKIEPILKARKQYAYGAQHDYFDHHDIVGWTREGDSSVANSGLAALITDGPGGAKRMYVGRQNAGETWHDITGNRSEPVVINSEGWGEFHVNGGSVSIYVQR

Chain of Beta-amylase (P16098 whole entry): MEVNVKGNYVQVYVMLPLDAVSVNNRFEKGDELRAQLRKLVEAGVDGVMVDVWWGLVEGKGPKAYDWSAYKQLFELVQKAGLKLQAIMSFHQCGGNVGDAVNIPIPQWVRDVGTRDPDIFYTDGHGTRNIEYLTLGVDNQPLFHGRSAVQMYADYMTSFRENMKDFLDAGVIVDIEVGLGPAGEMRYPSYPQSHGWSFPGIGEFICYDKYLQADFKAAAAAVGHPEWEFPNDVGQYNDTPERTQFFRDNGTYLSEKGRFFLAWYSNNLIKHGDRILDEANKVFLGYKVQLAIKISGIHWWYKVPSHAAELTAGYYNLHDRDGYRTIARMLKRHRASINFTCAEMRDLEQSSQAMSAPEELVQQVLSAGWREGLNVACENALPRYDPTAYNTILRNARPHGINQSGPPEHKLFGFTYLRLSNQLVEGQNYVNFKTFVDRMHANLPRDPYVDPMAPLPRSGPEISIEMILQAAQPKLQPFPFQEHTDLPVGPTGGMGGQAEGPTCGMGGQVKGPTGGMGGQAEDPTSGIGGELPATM
Chain of Beta-amylase (Hordeum vulgare) (P16098 whole entry): as above
Chain of Alpha-amylase (Bacillus licheniformis) (P06278 whole entry): as the sequence (P06278 whole entry) above

## O=C(/C=C/c1ccc(O)cc1)c1ccccc1
[1]
  Activity: inactive
Saccharomyces cerevisiae
  Activity: inactive
[2]
  Activity: inactive

## Nc1ccc(C(=O)/C=C/c2ccc(O)cc2)cc1
[3]
  IC50: 41 µM
Beta-amylase
  IC50: Not Active
Alpha-amylase; read-out: IC50
  IC50: 269 µM

## O=C(/C=C/c1ccc(O)c(O)c1)c1ccccc1
[1]
  Activity: inactive
Saccharomyces cerevisiae
  Activity: inactive
[2]
  Activity: inactive

## Cc1ccc(S(=O)(=O)Nc2cccc(C(=O)/C=C/c3ccc(O)c(O)c3)c2)cc1
[3]
  IC50: 15.6 µM
  Ki: 9.25 µM
Beta-amylase; read-out: IC50
  IC50: 24.8 µM
Alpha-amylase; read-out: IC50
  IC50: 16.8 µM

## Nc1cccc(C(=O)/C=C/c2ccc(O)cc2)c1
[3]
  IC50: > 200 µM
Beta-amylase; read-out: IC50
  IC50: 206 µM
Alpha-amylase
  IC50: Not Active

## O=C(/C=C/c1cccc(O)c1)c1ccc(O)cc1
[1]
  Activity: inactive
Saccharomyces cerevisiae
  Activity: inactive
[2]
  Activity: inactive

## O=c1c(O)c(-c2ccc(O)c(O)c2)oc2cc(O)cc(O)c12
[1]
  Activity: inactive
Saccharomyces cerevisiae
  Activity: inactive
[2]
  Activity: inactive

## Nc1cccc(C(=O)/C=C/c2ccc(O)c(O)c2)c1
[3]
  IC50: > 200 µM
Beta-amylase
  IC50: Not Active
Alpha-amylase
  IC50: Not Active

## O=C(/C=C/c1ccccc1O)c1ccccc1
[1]
  Activity: inactive
Saccharomyces cerevisiae
  Activity: inactive
[2]
  Activity: inactive

## O=C(/C=C/c1cccc(O)c1O)c1ccccc1
[1]
  Activity: inactive
Saccharomyces cerevisiae
  Activity: inactive
[2]
  Activity: inactive

## Cc1ccc(S(=O)(=O)Nc2ccc(C(=O)/C=C/c3ccc(O)cc3)cc2)cc1
[3]
  IC50: 0.98 µM
  Ki: 0.58 µM
Beta-amylase; read-out: IC50
  IC50: 247 µM
Alpha-amylase; read-out: IC50
  IC50: 87.8 µM

## Oc1cc(O)c2c(c1)O[C@@H](c1ccc(O)c(O)c1)[C@H](O)C2
[1]
  Activity: inactive
Saccharomyces cerevisiae
  Activity: inactive
[2]
  Activity: inactive

## Nc1ccc(C(=O)/C=C/c2ccc(O)c(O)c2)cc1
[3]
  IC50: 62.1 µM
Beta-amylase; read-out: IC50
  IC50: 127 µM
Alpha-amylase
  IC50: Not Active

## O=c1c(O)c(-c2cc(O)c(O)c(O)c2)oc2cc(O)cc(O)c12
[1]
  Activity: inactive
Saccharomyces cerevisiae
  Activity: inactive
[2]
  Activity: inactive

## Oc1cc(O)c2c(c1)O[C@H](c1ccc(O)c(O)c1)[C@@H](O)C2
[1]
  Activity: inactive
Saccharomyces cerevisiae
  Activity: inactive
[2]
  Activity: inactive

## C[C@H]1O[C@H](O[C@H]2[C@H](O)[C@@H](O)[C@@H](O[C@H]3[C@H](O)[C@@H](O)C(O)O[C@@H]3CO)O[C@@H]2CO)[C@H](O)[C@@H](O)[C@@H]1N[C@H]1C=C(CO)[C@@H](O)[C@H](O)[C@H]1O (stereo not given in full) [ACARBOSE]
[3]
  IC50: 60.8 µM

## Cc1ccc(S(=O)(=O)Nc2ccc(C(=O)/C=C/c3ccc(O)c(O)c3)cc2)cc1
[3]
  IC50: 0.4 µM
  Ki: 0.24 µM
Beta-amylase; read-out: IC50
  IC50: 65 µM
Alpha-amylase; read-out: IC50
  IC50: 194 µM

## O=C(/C=C/c1ccc(O)cc1)c1ccc(O)cc1
[1]
  Activity: inactive
Saccharomyces cerevisiae
  Activity: inactive
[2]
  Activity: inactive

## O=C(/C=C/c1cc(O)ccc1O)c1ccccc1
[1]
  Activity: inactive
Saccharomyces cerevisiae
  Activity: inactive
[2]
  Activity: inactive

## O=C(/C=C/c1ccc(O)cc1O)c1ccccc1
[1]
  Activity: inactive
Saccharomyces cerevisiae
  Activity: inactive
[2]
  Activity: inactive

## Cc1ccc(S(=O)(=O)Nc2cccc(C(=O)/C=C/c3ccc(O)cc3)c2)cc1
[3]
  IC50: 12.4 µM
  Ki: 7.38 µM
Beta-amylase; read-out: IC50
  IC50: 201 µM
Alpha-amylase; read-out: IC50
  IC50: 37.3 µM
